From publication PMC12668310, “High‐Throughput Synthesis and Screening of a Cyanimide Library Identifies Selective Inhibitors of ISG15‐Specific Protease mUSP18” (Angewandte Chemie (International Ed. in English), 2025)

Molecular target: T1, Flag-mUSP18 (Mus musculus, UniProt Q9WTV6)
T1 construct: expressed in transfected cells; host or cells: HEK293T
T1 sequence (Q9WTV6 1-368): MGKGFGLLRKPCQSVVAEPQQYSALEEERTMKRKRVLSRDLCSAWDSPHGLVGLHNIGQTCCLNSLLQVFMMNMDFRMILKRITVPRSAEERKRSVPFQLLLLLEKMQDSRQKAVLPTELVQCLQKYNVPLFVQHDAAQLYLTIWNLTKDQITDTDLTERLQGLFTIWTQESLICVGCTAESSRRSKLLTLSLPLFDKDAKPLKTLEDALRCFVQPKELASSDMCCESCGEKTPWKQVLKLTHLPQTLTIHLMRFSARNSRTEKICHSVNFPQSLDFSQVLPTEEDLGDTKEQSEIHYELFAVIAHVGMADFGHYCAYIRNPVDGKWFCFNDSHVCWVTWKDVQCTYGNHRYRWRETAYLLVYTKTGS
Assay: Gel-based ABPP with Rho-mISG15ct-PA probe in HEK293T cells overexpressing Flag-mUSP18
Format: cell-based, murine
Settings: live HEK293T cells, Flag-mUSP18, 4 h treatment
Description: To assess the cellular target engagement and cell permeability of these inhibitors, we performed activity‐based protein profiling. […] Following washing and cell lysis, cell extracts were incubated with a Rhodamine‐tagged murine ISG15 C‐terminal domain propargylamide activity‐based probe (Rho‐mISG15ct‐PA), which covalently labels the active site cysteine of active deISGylating enzymes.^[ [41] ^] The labelled enzymes were resolved by SDS‐PAGE and imaged by in‐gel fluorescence, where inhibition of USP18 is reflected by disappearance of the USP18‐probe‐labelled bands around 55 kDa (Figures 6a, S11A). All three inhibitors engaged with cellular mUSP18 in a dose‐dependent manner, with BB07CA902 and BB07CA28 showing efficient inhibition already at 1 µM concentration. […] The in‐cell selectivity of these inhibitors for USP18 over DUBs was confirmed in a similar ABPP experiment using a Rhodamine‐tagged ubiquitin propargylamide probe (Rho‐Ub‐PA),^[ [42] ^] which labels the active site cysteine of all active cysteine DUBs.
Figure 6 Inhibition of murine USP18 activity in living cells. a) Gel‐based ABPP potency assessment using a Rho‐mISG15ct‐PA probe in HEK293T cells overexpressing Flag‐mUSP18. At 24 h following transfection, cells were incubated with DMSO or increasing concentrations of indicated inhibitors for 4 h, lysed, and treated with Rho‐mISG15ct‐PA probe. Top panel: fluorescence scan. Middle panel: anti‐Flag western blot. Bottom panel: anti‐GAPDH western blot confirms equal loading. b) Accumulation of ISGylation in mouse IFN‐β‐stimulated EL4 cells. At 24 h following mouse IFN‐β treatment, cells were incubated with DMSO or increasing concentrations of indicated inhibitors for 4 h, lysed, and treated with Rho‐mISG15ct‐PA probe. […] Middle panel: fluorescence scan. […]
Samples were then diluted 3-fold with water and analyzed by mass spectrometry by injecting 2 μL into a Waters XEVO-G2 XS Q-TOF mass spectrometer equipped with an electrospray ion source in positive mode (capillary voltage 1.2 kV, desolvation gas flow 900 L/h, T = 60 °C) with a resolution of R = 26,000. […]

Row | SMILES | concentration at which inhibition of mUSP18 probe labelling is observed [µM]
1 | Cc1cc(C(=O)N[C@H]2C[C@@H]3CN(C#N)C[C@@H]3C2)ccc1Br [BB07CA28] | ≤ 1
2 | Cc1cc(C(=O)N[C@H]2C[C@@H]3CN(C#N)C[C@@H]3C2)ccc1C(C)C [BB07CA902] | ≤ 1
